Experimental data as given in patent publication US12215140B2, “Method of stabilizing protein contained in specimen and solution for stabilizing protein contained in specimen” (EIKEN KAGAKU KABUSHIKI KAISHA, priority 2018, dated 2025).

Test system: hemoglobin-haptoglobin complex
Assay: Stability of hemoglobin (as hemoglobin-haptoglobin complex) in samples preserved at 37° C. in preservation solution containing 1 unit/L haptoglobin, Hb measured by latex agglutination method (Examples 1 to 7)
Design: species or system human
Settings: for Hb concentration / Recovery ratio with respect to Hb concentration after 0 days: 37° C.
Summary of the method: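 Latex agglutination (anti-human hemoglobin rabbit polyclonal latex) measured Hb in samples stored at 37 °C up to 21 days; values expressed as % recovery versus day 0. Preservation solution: HEPES 40 mmol/L pH 6.8, BSA 0.1%, NaN3 0.1%, haptoglobin 1 unit/L, phenylboronic acid 0–100 mmol/L, optional sugars; ~300 µg/L Hb, 0.5% feces or none.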

[1] = Feces 1, sugar 50 mmol/L + phenylboronic acid 15 mmol/L, 0 days
[2] = Feces 1, sugar 50 mmol/L + phenylboronic acid 15 mmol/L, 7 days
[3] = Feces 1, sugar 50 mmol/L + phenylboronic acid 15 mmol/L, 14 days
[4] = Feces 1, sugar 50 mmol/L + phenylboronic acid 15 mmol/L, 21 days
[5] = Feces 1, sugar 100 mmol/L + phenylboronic acid 15 mmol/L, 0 days
[6] = Feces 1, sugar 100 mmol/L + phenylboronic acid 15 mmol/L, 7 days
[7] = Feces 1, sugar 100 mmol/L + phenylboronic acid 15 mmol/L, 14 days
[8] = Feces 1, sugar 100 mmol/L + phenylboronic acid 15 mmol/L, 21 days
[9] = Feces 1, sugar 100 mmol/L, no phenylboronic acid, 0 days
[10] = Feces 1, sugar 100 mmol/L, no phenylboronic acid, 7 days
[11] = Feces 1, sugar 100 mmol/L, no phenylboronic acid, 14 days
[12] = Feces 1, sugar 100 mmol/L, no phenylboronic acid, 21 days
[13] = Feces 2, sugar 50 mmol/L + phenylboronic acid 15 mmol/L, 0 days
[14] = Feces 2, sugar 50 mmol/L + phenylboronic acid 15 mmol/L, 7 days
[15] = Feces 2, sugar 50 mmol/L + phenylboronic acid 15 mmol/L, 14 days
[16] = Feces 2, sugar 50 mmol/L + phenylboronic acid 15 mmol/L, 21 days
[17] = Feces 2, sugar 100 mmol/L + phenylboronic acid 15 mmol/L, 0 days
[18] = Feces 2, sugar 100 mmol/L + phenylboronic acid 15 mmol/L, 14 days
[19] = Feces 2, sugar 100 mmol/L + phenylboronic acid 15 mmol/L, 21 days
[20] = Feces 2, sugar 100 mmol/L, no phenylboronic acid, 0 days
[21] = Feces 2, sugar 100 mmol/L, no phenylboronic acid, 7 days
[22] = Feces 2, sugar 100 mmol/L, no phenylboronic acid, 14 days
[23] = Feces 2, sugar 100 mmol/L, no phenylboronic acid, 21 days
[24] = Feces 3, sugar 50 mmol/L + phenylboronic acid 15 mmol/L, 0 days
[25] = Feces 3, sugar 50 mmol/L + phenylboronic acid 15 mmol/L, 7 days
[26] = Feces 3, sugar 50 mmol/L + phenylboronic acid 15 mmol/L, 14 days
[27] = Feces 3, sugar 50 mmol/L + phenylboronic acid 15 mmol/L, 21 days
[28] = Feces 3, sugar 100 mmol/L + phenylboronic acid 15 mmol/L, 0 days
[29] = Feces 3, sugar 100 mmol/L + phenylboronic acid 15 mmol/L, 7 days
[30] = Feces 3, sugar 100 mmol/L + phenylboronic acid 15 mmol/L, 14 days
[31] = Feces 3, sugar 100 mmol/L + phenylboronic acid 15 mmol/L, 21 days
[32] = Feces 3, sugar 100 mmol/L, no phenylboronic acid, 0 days
[33] = Feces 3, sugar 100 mmol/L, no phenylboronic acid, 7 days
[34] = Feces 3, sugar 100 mmol/L, no phenylboronic acid, 14 days
[35] = Feces 3, sugar 100 mmol/L, no phenylboronic acid, 21 days
[36] = No feces, sugar 50 mmol/L + phenylboronic acid 15 mmol/L, 7 days
[37] = No feces, sugar 50 mmol/L + phenylboronic acid 15 mmol/L, 14 days
[38] = No feces, sugar 100 mmol/L + phenylboronic acid 15 mmol/L, 0 days
[39] = No feces, sugar 100 mmol/L + phenylboronic acid 15 mmol/L, 7 days
[40] = No feces, sugar 100 mmol/L + phenylboronic acid 15 mmol/L, 14 days
[41] = No feces, sugar 100 mmol/L + phenylboronic acid 15 mmol/L, 21 days
[42] = No feces, sugar 100 mmol/L, no phenylboronic acid, 7 days
[43] = No feces, sugar 100 mmol/L, no phenylboronic acid, 14 days
[44] = No feces, sugar 100 mmol/L, no phenylboronic acid, 21 days

OC[C@H]1O[C@@](CO)(O[C@H]2O[C@H](CO)[C@@H](O)[C@H](O)[C@H]2O)[C@@H](O)[C@@H]1O [Sucrose, sucrose]
Hb concentration [1]: 291 µg/L
Recovery ratio with respect to Hb concentration after 0 days [1]: 100%
Hb concentration [2]: 281 µg/L
Recovery ratio with respect to Hb concentration after 0 days [2]: 97%
Hb concentration [3]: 274 µg/L
Recovery ratio with respect to Hb concentration after 0 days [3]: 94%
Hb concentration [4]: 268 µg/L
Recovery ratio with respect to Hb concentration after 0 days [4]: 92%
Hb concentration [5]: 286 µg/L
Recovery ratio with respect to Hb concentration after 0 days [5]: 100%
Hb concentration [6]: 272 µg/L
Recovery ratio with respect to Hb concentration after 0 days [6]: 95%
Hb concentration [7]: 270 µg/L
Recovery ratio with respect to Hb concentration after 0 days [7]: 94%
Hb concentration [8]: 258 µg/L
Recovery ratio with respect to Hb concentration after 0 days [8]: 90%
Hb concentration [9]: 264 µg/L
Recovery ratio with respect to Hb concentration after 0 days [9]: 100%
Hb concentration [10]: 115 µg/L
Recovery ratio with respect to Hb concentration after 0 days [10]: 44%
Hb concentration [11]: 70 µg/L
Recovery ratio with respect to Hb concentration after 0 days [11]: 27%
Hb concentration [12]: 80 µg/L
Recovery ratio with respect to Hb concentration after 0 days [12]: 30%
Hb concentration [13]: 273 µg/L
Recovery ratio with respect to Hb concentration after 0 days [13]: 100%
Hb concentration [14]: 266 µg/L
Recovery ratio with respect to Hb concentration after 0 days [14]: 97%
Hb concentration [15]: 232 µg/L
Recovery ratio with respect to Hb concentration after 0 days [15]: 85%
Hb concentration [16]: 212 µg/L
Recovery ratio with respect to Hb concentration after 0 days [16]: 78%
Hb concentration [17]: 267 µg/L
Recovery ratio with respect to Hb concentration after 0 days [17]: 100%
Recovery ratio with respect to Hb concentration after 0 days (Feces 2, sugar 100 mmol/L + phenylboronic acid 15 mmol/L, 7 days): 96%
Hb concentration [18]: 236 µg/L
Recovery ratio with respect to Hb concentration after 0 days [18]: 88%
Hb concentration [19]: 219 µg/L
Recovery ratio with respect to Hb concentration after 0 days [19]: 82%
Hb concentration [20]: 270 µg/L
Recovery ratio with respect to Hb concentration after 0 days [20]: 100%
Hb concentration [21]: 96 µg/L
Recovery ratio with respect to Hb concentration after 0 days [21]: 36%
Hb concentration [22]: 49 µg/L
Recovery ratio with respect to Hb concentration after 0 days [22]: 18%
Hb concentration [23]: 31 µg/L
Recovery ratio with respect to Hb concentration after 0 days [23]: 11%
Hb concentration [24]: 286 µg/L
Recovery ratio with respect to Hb concentration after 0 days [24]: 100%
Hb concentration [25]: 234 µg/L
Recovery ratio with respect to Hb concentration after 0 days [25]: 82%
Hb concentration [26]: 209 µg/L
Recovery ratio with respect to Hb concentration after 0 days [26]: 73%
Hb concentration [27]: 195 µg/L
Recovery ratio with respect to Hb concentration after 0 days [27]: 68%
Hb concentration [28]: 272 µg/L
Recovery ratio with respect to Hb concentration after 0 days [28]: 100%
Hb concentration [29]: 230 µg/L
Recovery ratio with respect to Hb concentration after 0 days [29]: 85%
Hb concentration [30]: 201 µg/L
Recovery ratio with respect to Hb concentration after 0 days [30]: 74%
Hb concentration [31]: 187 µg/L
Recovery ratio with respect to Hb concentration after 0 days [31]: 69%
Hb concentration [32]: 267 µg/L
Recovery ratio with respect to Hb concentration after 0 days [32]: 100%
Hb concentration [33]: 89 µg/L
Recovery ratio with respect to Hb concentration after 0 days [33]: 33%
Hb concentration [34]: 55 µg/L
Recovery ratio with respect to Hb concentration after 0 days [34]: 21%
Hb concentration [35]: 40 µg/L
Recovery ratio with respect to Hb concentration after 0 days [35]: 15%
Recovery ratio with respect to Hb concentration after 0 days (No feces, sugar 50 mmol/L + phenylboronic acid 15 mmol/L, 0 days): 100%
Hb concentration [36]: 253 µg/L
Recovery ratio with respect to Hb concentration after 0 days [36]: 93%
Hb concentration [37]: 246 µg/L
Recovery ratio with respect to Hb concentration after 0 days [37]: 91%
Recovery ratio with respect to Hb concentration after 0 days (No feces, sugar 50 mmol/L + phenylboronic acid 15 mmol/L, 21 days): 95%
Hb concentration [38]: 267 µg/L
Recovery ratio with respect to Hb concentration after 0 days [38]: 100%
Hb concentration [39]: 247 µg/L
Recovery ratio with respect to Hb concentration after 0 days [39]: 93%
Hb concentration [40]: 241 µg/L
Recovery ratio with respect to Hb concentration after 0 days [40]: 90%
Hb concentration [41]: 260 µg/L
Recovery ratio with respect to Hb concentration after 0 days [41]: 97%
Recovery ratio with respect to Hb concentration after 0 days (No feces, sugar 100 mmol/L, no phenylboronic acid, 0 days): 100%
Hb concentration [42]: 228 µg/L
Recovery ratio with respect to Hb concentration after 0 days [42]: 93%
Hb concentration [43]: 223 µg/L
Recovery ratio with respect to Hb concentration after 0 days [43]: 91%
Hb concentration [44]: 222 µg/L
Recovery ratio with respect to Hb concentration after 0 days [44]: 91%
recovery ratio of hemoglobin in the sample (sugar 100 mmol/L further added to other arylboronic acids (3-CPBA, 3-HPBA, 3-APBA) 15 mmol/L, Feces 1, Feces 2, Feces 3): further improved
recovery ratio of hemoglobin in the samples containing fecal specimens (sugar 100 mmol/L, preservation solutions containing no phenylboronic acid): does not improve
recovery ratio of hemoglobin in the sample (sugar 50 or 100 mmol/L further added to phenylboronic acid 15 mmol/L, Feces 1, Feces 2, Feces 3): further improved
recovery ratio of hemoglobin in the samples containing feces (sugar added to phenylboronic acid 15 mmol/L, Feces 1, Feces 2, Feces 3): improved depending on the added concentration
